Laboratory results as given in patent publication US6328728A, “Composition and method for enhancing electrotransport agent delivery” (Alza Corporation, priority 1997, dated 2001).

Test: Measurement of circular dichroism (mean residue ellipticity at 222 nm)
Format: physicochemical
Conditions: 32° C.
Excerpt: In general, the structure of a polypeptide in an aqueous buffered solution is in constant flux between portions thereof being random coil and alpha-helix configurations. For the polypeptides used in the following examples, the predominant structure is a random coil since the alpha-helix configuration is unstable in the absence of bound surfactant. According to the present invention adding surfactant to an aqueous solution of a polypeptide stabilizes the alpha-helix configuration. Circular dichroism is a measurement of the amount of the alpha-helix configured polypeptide present in the solution. Thus, circular dichroism provides an indirect measurement of the degree of binding of the surfactant to the polypeptide. (See, for example, Epand R. M., Epand R. F., Orlowski R. C., Schuleter R. J., Boni L. T. and Hui S. W., Biochemistry 22, 5074-5084 (1983); Hui, S. W., Epand R. M., Dell K. R., Epand R. F. and Orlowski R. C., Biochimica Biophysica Acta 772, 264-272 (1984); Epand R. M., Epand R. F., and Orlowski R. C., International Journal Peptide Protein Research 25 105-111; Epand R. M., Epand R. F., Orlowski R. C., Seyler J. K. and Colescott R. L., Biochemistry 25, 1964-1968; Epand R. M., Seyler J. K. and Orlowski R. C., European Journal Biochemistry 159, 125-127 (1986); Wiersema P. H., Loeb A. L. and Overbeek, J., Colloid Interface Science 22, 78-99 (1966)).
The surfactant/peptide circular dichroism (CD) spectra were obtained in a 2 mm path-length cell (110-Q-2 Model, AVIV, Lakewood, N.J.) at 32° C. The cell was initially loaded with 0.60 mL of a solution containing about 0.25 mg/mL of the peptide in 10 mM sodium chloroacetate (pH 3.5) or 10 mM sodium borate (pH 9.0). The buffers were selected to minimize the effect of the temperature on the pH of the solution and to minimize light absorption, thereby optimizing the signal-to-noise ratio (SNR). The peptide concentration was determined by spectrophotometry, with log-log correction for light scattering. The surfactant concentration was increased step-wise by titration of concentrated surfactant stock directly into the CD cell, followed by eight inversions of the cell, with the air bubble providing the mixing turbulence. After mixing, the cell was placed into the AVIV 62 CD spectrometer (AVIV, Lakewood, N.J.). In order to approximate temperature and chemical equilibrium, the sample remained in the spectrometer 5 minutes before a reading was taken. The CD spectrum was taken using a band pass of 1 nm, a data interval of 1 nm, and a data averaging time of 10 seconds. The mean residue ellipticity is the ellipticity divided by the path length in cm times the amino acid residue concentration in decimoles/cm^3. See Methods in Enzymology, Vol 130, pp 208-269, Yang et al, "Calculation of Protein Conformation from Circular Dichroism" (1986).
The measurement procedures described above were conducted on an aqueous solution of the protein insulinotropin, with TWEEN® 20 (MW=1126 g/mol) as the surfactant, with the following modifications. The insulinotropin donor solution concentration was 0.12 mg/mL. One test was run in 10 mM sodium borate at pH 9.0 and another test in 10 mM sodium chloroacetate at pH 3.5.
Fractional changes (%δ) are defined as the difference between the reading at a given surfactant concentration (Ec) minus the reading at zero surfactant (E0), the quantity divided by the difference between the reading at saturated surfactant concentration (Es) minus the reading at zero surfactant (E0), i. e. %δ=(Ec -E0)/(Es-E0).
The measurement procedures described earlier were conducted on an aqueous solution of insulinotropin as the agent, and TWEEN® 40 (molecular weight 1282 g/mol) as the surfactant with the following changes. The insulinotropin concentration was initially 0.29 mg/mL, and 0.21 mg/mL after the final TWEEN® 40 addition and the temperature was held at 32° C. Two tests were conducted at two different concentrations of TWEEN® 40. […]

Substance: Salmon Calcitonin [reference compound]
- Ellipticity (mean residue at 222 nm) (pH 3.5, 12 mM sodium chloroacetate, dodecyl sulfobetaine 0, calcitonin 0.087 mM): -4052 deg-cm^2 /dmol
- Ellipticity (mean residue at 222 nm) (pH 3.5, 12 mM sodium chloroacetate, dodecyl sulfobetaine 2.44 mM, calcitonin 0.085 mM): -4270 deg-cm^2 /dmol
- Ellipticity (mean residue at 222 nm) (pH 3.5, 12 mM sodium chloroacetate, dodecyl sulfobetaine 4.76 mM, calcitonin 0.083 mM): -7984 deg-cm^2 /dmol
- Ellipticity (mean residue at 222 nm) (pH 3.5, 12 mM sodium chloroacetate, dodecyl sulfobetaine 5.52 mM, calcitonin 0.082 mM): -8744 deg-cm^2 /dmol
- Ellipticity (mean residue at 222 nm) (pH 3.5, 12 mM sodium chloroacetate, dodecyl sulfobetaine 6.25 mM, calcitonin 0.081 mM): -9436 deg-cm^2 /dmol
- Ellipticity (mean residue at 222 nm) (pH 3.5, 12 mM sodium chloroacetate, dodecyl sulfobetaine 7.69 mM, calcitonin 0.080 mM): -10475 deg-cm^2 /dmol
- Ellipticity (mean residue at 222 nm) (pH 3.5, 12 mM sodium chloroacetate, dodecyl sulfobetaine 9.09 mM, calcitonin 0.079 mM): -11072 deg-cm^2 /dmol
- Ellipticity (mean residue at 222 nm) (pH 3.5, 12 mM sodium chloroacetate, dodecyl sulfobetaine 10.4 mM, calcitonin 0.078 mM): -11460 deg-cm^2 /dmol
- Ellipticity (mean residue at 222 nm) (pH 3.5, 12 mM sodium chloroacetate, dodecyl sulfobetaine 13.0 mM, calcitonin 0.076 mM): -11924 deg-cm^2 /dmol
- Ellipticity (mean residue at 222 nm) (pH 3.5, 12 mM sodium chloroacetate, dodecyl sulfobetaine 15.5 mM, calcitonin 0.073 mM): -12070 deg-cm^2 /dmol
- Ellipticity (mean residue at 222 nm) (pH 3.5, 12 mM sodium chloroacetate, dodecyl sulfobetaine 21.1 mM, calcitonin 0.069 mM): -12285 deg-cm^2 /dmol
- Ellipticity (mean residue at 222 nm) (pH 3.5, 12 mM sodium chloroacetate, dodecyl sulfobetaine 27.7 mM, calcitonin 0.063 mM): -12133 deg-cm^2 /dmol
- Ellipticity (mean residue at 222 nm) (pH 5.0, 4 mM piperazine-HCl, dodecyl sulfobetaine 0, calcitonin 0.076 mM): -3919 deg-cm^2 /dmol
- Ellipticity (mean residue at 222 nm) (pH 5.0, 4 mM piperazine-HCl, dodecyl sulfobetaine 0.83 mM, calcitonin 0.076 mM): -3950 deg-cm^2 /dmol
- Ellipticity (mean residue at 222 nm) (pH 5.0, 4 mM piperazine-HCl, dodecyl sulfobetaine 1.64 mM, calcitonin 0.075 mM): -4011 deg-cm^2 /dmol
- Ellipticity (mean residue at 222 nm) (pH 5.0, 4 mM piperazine-HCl, dodecyl sulfobetaine 3.23 mM, calcitonin 0.074 mM): -5209 deg-cm^2 /dmol
- Ellipticity (mean residue at 222 nm) (pH 5.0, 4 mM piperazine-HCl, dodecyl sulfobetaine 4.76 mM, calcitonin 0.073 mM): -7108 deg-cm^2 /dmol
- Ellipticity (mean residue at 222 nm) (pH 5.0, 4 mM piperazine-HCl, dodecyl sulfobetaine 6.25 mM, calcitonin 0.072 mM): -8348 deg-cm^2 /dmol
- Ellipticity (mean residue at 222 nm) (pH 5.0, 4 mM piperazine-HCl, dodecyl sulfobetaine 7.69 mM, calcitonin 0.071 mM): -9127 deg-cm^2 /dmol
- Ellipticity (mean residue at 222 nm) (pH 5.0, 4 mM piperazine-HCl, dodecyl sulfobetaine 9.77 mM, calcitonin 0.069 mM): -9915 deg-cm^2 /dmol
- Ellipticity (mean residue at 222 nm) (pH 5.0, 4 mM piperazine-HCl, dodecyl sulfobetaine 12.4 mM, calcitonin 0.067 mM): -10469 deg-cm^2 /dmol
- Ellipticity (mean residue at 222 nm) (pH 5.0, 4 mM piperazine-HCl, dodecyl sulfobetaine 18.4 mM, calcitonin 0.062 mM): -10999 deg-cm^2 /dmol
- Ellipticity (mean residue at 222 nm) (pH 5.0, 4 mM piperazine-HCl, dodecyl sulfobetaine 26.4 mM, calcitonin 0.056 mM): -11188 deg-cm^2 /dmol
- Ellipticity (mean residue at 222 nm) (pH 5.0, 4 mM piperazine-HCl, dodecyl sulfobetaine 35.8 mM, calcitonin 0.049 mM): -11051 deg-cm^2 /dmol
- Ellipticity (mean residue at 222 nm) (pH 6.5, 15 mM sodium cacodylate, dodecyl sulfobetaine 0, calcitonin 0.071 mmol/l): -4569 deg-cm^2 /dmol
- Ellipticity (mean residue at 222 nm) (pH 6.5, 15 mM sodium cacodylate, dodecyl sulfobetaine 3.28 mmol/l, calcitonin 0.070 mmol/l): -6725 deg-cm^2 /dmol
- Ellipticity (mean residue at 222 nm) (pH 6.5, 15 mM sodium cacodylate, dodecyl sulfobetaine 6.45 mmol/l, calcitonin 0.068 mmol/l): -10182 deg-cm^2 /dmol
- Ellipticity (mean residue at 222 nm) (pH 6.5, 15 mM sodium cacodylate, dodecyl sulfobetaine 9.52 mmol/l, calcitonin 0.067 mmol/l): -11095 deg-cm^2 /dmol
- Ellipticity (mean residue at 222 nm) (pH 6.5, 15 mM sodium cacodylate, dodecyl sulfobetaine 12.5 mmol/l, calcitonin 0.066 mmol/l): -11386 deg-cm^2 /dmol
- Ellipticity (mean residue at 222 nm) (pH 6.5, 15 mM sodium cacodylate, dodecyl sulfobetaine 18.2 mmol/l, calcitonin 0.064 mmol/l): -11744 deg-cm^2 /dmol
- Ellipticity (mean residue at 222 nm) (pH 6.5, 15 mM sodium cacodylate, dodecyl sulfobetaine 28.6 mmol/l, calcitonin 0.061 mmol/l): -11862 deg-cm^2 /dmol
- Ellipticity (mean residue at 222 nm) (pH 6.5, 15 mM sodium cacodylate, dodecyl sulfobetaine 42.1 mmol/l, calcitonin 0.056 mmol/l): -11844 deg-cm^2 /dmol
